Measured values taken from patent publication US7220784B2, “Substituted stilbenes and their reactions” (priority 2000, dated 2007).

Legend:
[1] = system: L1210 murine leukaemia cell line; assay: MTT, L1210; format: cell-based; conditions: Mus musculus; L1210 murine leukaemia cell line (footnote a)
tubulin [2] = assay: CD IC50 (Tables 12-26, abbreviation not defined); format: binding
tubulin [3] = assay: MA IC50 (Tables 12-26, abbreviation not defined); format: biochemical

COc1ccc(/C=C\c2cc(O)c(OC)c(OC)c2)cc1O [Compound 18, reference compound]
IC50 [1]: 0.04 µM | IC50 (tubulin [2]): 22 µM | IC50 (tubulin [3]): 4 to 5 µM
